From patent publication US6200591A, “Method of administration of sildenafil to produce instantaneous response for the treatment of erectile dysfunction” (priority 1998, dated 2001)
“Also recorded” adds a separate entry of the source. Structures can show the parent of a compound that is named as a salt. Ends that are not written are not given here.

Tests used:
[1] = intracavernosal, cited from earlier work; for Results of i.c. injection in erectile dysfunction: either alone or in combination
[2] = sublingual, cited from earlier work
[3] = Peak plasma concentration time / response in humans, current oral tablet formulation vs intranasal route; format: in vivo; conditions: indicated by rat results
[4] = currently used oral route; cited from earlier work
[5] = Absorption of solubilized sildenafil from the nasal cavity of rats (blood concentration after intranasal vs intravenous administration); format: in vivo; conditions: for Concentration of sildenafil in the blood of rats, intranasal, mean: n = 5; for Concentration of sildenafil in the blood of rats, intravenous, mean: n = 3
Experimental: These experiments determine the bioavailability of sildenafil, or derivatives thereof, after nasal administration and compare it to that after intravenous administration. In particular, the present experiment determined the absorption of sildenafil into the blood of rats following intranasal administration of a formulation in which the sildenafil was solubilized by the addition of mesylic acid (see below).
The nasal absorption of sildenafil, or derivatives thereof, were measured using an in vivo technique in rats. Rats were fasted overnight prior to experimentation. Surgical procedures were performed under equithesin anesthesia (3 ml/kg, i.p.). An incision was made in the neck of each rat, and the trachea cannulated with polyethylene tubing (PF-260). A closed end tube was inserted through the esophagus to the posterior part of the nasal cavity to prevent drug from entering the esophagus. The nasopalatine passage was closed with an adhesive agent to prevent drainage of the drug from the nasal cavity to the mouth.
The jugular vein and femoral artery were cannulated with polyethylene tubing for intravenous drug administration and intra-arterial blood sampling.
Solutions of sildenafil hydrochloride (2 and 4 mg/rat/50 μl) were prepared in water and administered through the right nostril using a microsyringe. For intravenous administration, the same dose of the drug was injected into the jugular vein (1 ml/kg body weight). […]
Bioavailability of nasally administered drug was calculated by comparing the plasma drug concentrations between nasal and intravenous delivery routes and expressed as a percentage of the intravenous bioavailability.
The solution instilled into the nasal cavities of the rats in this experiment had the following composition:
Adjust the pH to 2.8 to 3.0 with 0.05M NaOH
At various times following the intranasal and intravenous administration of sildenafil to rats, the concentrations of sildenafil in blood were determined using the following analytical method:
One hundred microliters of rat plasma was treated with 25 microliters of 1M monochloroacetic acid to denature the plasma proteins and release free sildenafil. Seventy-five microliters of acetonitrile was then added to precipitate the proteins. This solution was centifuged for 5 minutes at 5,000 g. The clear supernatant was injected onto the HPLC column.
The HPLC system consisted of the following:
The concentrations are expressed as areas under the HPLC curves×10^-4.

[6] = Solubility of the citrate salt in water; format: physicochemical
[7] = cited from earlier work

## CC(COc1ccccc1)N(CCCl)Cc1ccccc1 (stereo not drawn) [phenoxybenzamine]
[1]
  Results of i.c. injection in erectile dysfunction: good results

## vasoactive intestinal polypeptide (VIP): vasoactive intestinal polypeptide (HSDAVFTDNYTRLRKQMAVKKYLNSILN; ends and bridges not checked; UniProt P01282 125-152, looked up)
[1]
  Activity i.c.: active i.c.

## CCCCC[C@H](O)/C=C/[C@H]1[C@H](O)CC(=O)[C@@H]1CCCCCCC(=O)O [PGE-1]
[1]
  Results of i.c. injection in erectile dysfunction: good results

## CN1CCc2cccc3c2[C@H]1Cc1ccc(O)c(O)c1-3 [apomorphine]
[2]
  Effect on erectile function: restore normal erectile function
[2]; men whose dysfunction had psychological origins
  Men returned to sexual potency: about 70%

## CCCc1nn(C)c2c(=O)[nH]c(-c3cc(S(=O)(=O)N4CCN(C)CC4)ccc3OCC)nc12 [Sildenafil, 5-[2-ethoxy-5-(4-methyl-1-piperazinylsulphonyl)-phenyl]-1-methyl-3-n-propyl-1,6-dihydro-7H-pyrazolo[4,3-d]pyrimidin-7-one]
[3]
  Response in humans, intranasal route vs current oral tablet: much more rapid response
[4]
  Time to response, oral route: ≥ 60 min
[5]; intranasal vs intravenous
  Effectiveness of intranasal compared with intravenous administration: as effective as intravenous administration
[5]; intranasal, comparison of areas under blood concentration versus time curves with intravenous (FIG. 1)
  Absorption following intranasal administration: complete and very rapid absorption; also recorded: rapidly and complete absorbed
[5]; intranasal
  Concentration of sildenafil in the blood of rats, intranasal, mean: 11.7 areas under the HPLC curves×10
[5]; intranasal, time 2 min
  Concentration of sildenafil in the blood of rats, intranasal, mean: 12.1 areas under the HPLC curves×10
[5]; intranasal, time 5 min
  Concentration of sildenafil in the blood of rats, intranasal, mean: 25.5 areas under the HPLC curves×10
[5]; intranasal, time 10 min
  Concentration of sildenafil in the blood of rats, intranasal, mean: 38.2 areas under the HPLC curves×10
[5]; intranasal, time 15 min
  Concentration of sildenafil in the blood of rats, intranasal, mean: 43.5 areas under the HPLC curves×10
[5]; intranasal, time 20 min
  Concentration of sildenafil in the blood of rats, intranasal, mean: 32.6 areas under the HPLC curves×10
[5]; intranasal, time 30 min
  Concentration of sildenafil in the blood of rats, intranasal, mean: 31.0 areas under the HPLC curves×10
[5]; intranasal, time 40 min
  Concentration of sildenafil in the blood of rats, intranasal, mean: 22.7 areas under the HPLC curves×10
[5]; intranasal, time 50 min
  Concentration of sildenafil in the blood of rats, intranasal, mean: 19.6 areas under the HPLC curves×10
[5]; time 0 min
  Concentration of sildenafil in the blood of rats, intravenous, mean: 188.8 areas under the HPLC curves×10
[5]; time 2 min
  Concentration of sildenafil in the blood of rats, intravenous, mean: 84.7 areas under the HPLC curves×10
[5]; time 5 min
  Concentration of sildenafil in the blood of rats, intravenous, mean: 47.7 areas under the HPLC curves×10
[5]; time 10 min
  Concentration of sildenafil in the blood of rats, intravenous, mean: 32.0 areas under the HPLC curves×10
[5]; time 15 min
  Concentration of sildenafil in the blood of rats, intravenous, mean: 19.5 areas under the HPLC curves×10
[5]; time 20 min
  Concentration of sildenafil in the blood of rats, intravenous, mean: 17.9 areas under the HPLC curves×10
[5]; time 30 min
  Concentration of sildenafil in the blood of rats, intravenous, mean: 16.0 areas under the HPLC curves×10
[5]; time 40 min
  Concentration of sildenafil in the blood of rats, intravenous, mean: 14.6 areas under the HPLC curves×10
[5]; time 50 min
  Concentration of sildenafil in the blood of rats, intravenous, mean: 7.6 areas under the HPLC curves×10
[5]; rat, in vivo, rats, intranasal, approximately, read-out: Time of peak blood concentration
  Tmax: 10 to 15 min

## CCCc1nn(C)c2c(=O)[nH]c(-c3cc(S(=O)(=O)N4CCN(C)CC4)ccc3OCC)nc12 [sildenafil citrate]
[6]
  solubility: 3500 µg/mL

## O=[N+]([O-])OCC(CO[N+](=O)[O-])O[N+](=O)[O-] [glyceryl trinitrate (GTN), glyceryl trinitrate]
[7]
  Effect of patches applied to the penis: effective
  Side-effects of patches applied to the penis: produces side-effects in both patient and partner

## Cc1ccc(N(CC2=NCCN2)c2cccc(O)c2)cc1 [phentolamine]
[1]
  Results of i.c. injection in erectile dysfunction: good results

## COc1ccc(Cc2nccc3cc(OC)c(OC)cc23)cc1OC [papaverine]
[1]
  Results of i.c. injection in erectile dysfunction: good results
